Assay: Stability of the crystal form on stirring as suspension in solvent (40° C., 2 days)
Assay type: physicochemical
Conditions: stirring in methanol at 40° C. for 2 days
Protocol: 30 mg of the compound represented by formula (I) was weighed and added into a glass flask, 400 μL acetonitrile-water (1:1) was added to form a suspension. A sample of the suspension was placed on a magnetic stirrer (40° C.) for a dark stirring experiment. The sample of the suspension was centrifuged after stirring at 40° C. for 2 days, and then the residual sample was dried in a vacuum drying oven (30° C.) overnight to give a crystal form A of the compound represented by formula (I). The XRPD pattern of the crystal form A of the compound represented by formula (I) is shown in FIG. 1, the DSC pattern is shown in FIG. 2, and the TGA pattern is shown in FIG. 3.
30 mg of the compound represented by formula (I) was weighed and added into a glass flask, and 400 μL ethyl acetate was added to form a suspension. A sample of the suspension was placed on a magnetic stirrer (40° C.) for dark stirring experiment. The sample of the suspension was centrifuged after stirring at 40° C. for 2 days, and then the residual sample was dried in a vacuum drying oven (30° C.) overnight. The crystal form was detected by XRPD to give a crystal form A of the compound represented by formula (I).
30 mg of the compound represented by formula (I) was weighed and added into a glass flask, and 400 μL methanol was added to form a suspension. A sample of the suspension was placed on a magnetic stirrer (40° C.) for dark stirring experiment. The sample of the suspension was centrifuged after stirring at 40° C. for 2 days, and then the residual sample was dried in a vacuum drying oven (30° C.) overnight to give a crystal form B of the compound represented by formula (I). The XRPD pattern of the crystal form B of the compound represented by formula (I) is shown in FIG. 4, the DSC pattern is shown in FIG. 5, and the TGA pattern is shown in FIG. 6.
50 mg of the compound represented by formula (I) was weighed and added into a 1.5 mL liquid vial, and 200 μL methanol was added thereto, the obtained mixture was homogeneously mixed under ultrasound. The dissolved sample was quickly centrifuged, and the supernatant was placed in a centrifuge tube, the mouth of the tube was packed with a pierced aluminum foil, and then the tube was placed in a fume cupboard for volatilization; the sample of the suspension was placed on a magnetic stirring heater (40° C.) for stirring (in dark), and quickly centrifuged after 2 days. The resultant solid was collected and dried at 30° C. in a vacuum drying oven overnight to give the crystal form C of the compound represented by formula (I). The XRPD pattern of the crystal form C of the compound represented by formula (I) is shown in FIG. 7, the DSC pattern is shown in FIG. 8, and the TGA pattern is shown in FIG. 9.
50 mg of the compound represented by formula (I) was weighed and added into a 1.5 mL liquid vial, and 200 μL ethanol was added thereto, and the obtained mixture was homogeneously mixed under ultrasound. The dissolved sample was quickly centrifuged, the supernatant was placed into a centrifuge tube, and the mouth of the tube was packed with a pierced aluminum foil, and placed in a fume cupboard for volatilization; the sample of the suspension was placed on a magnetic stirring heater (40° C.) for stirring (in dark), and quickly centrifuged after 2 days. The solid obtained as above was collected and dried at 30° C. in a vacuum drying oven overnight to give a crystal form D of the compound represented by formula (I). The XRPD pattern of the crystal form D of the compound represented by formula (I) is shown in FIG. 10, the DSC pattern is shown in FIG. 11, and the TGA pattern is shown in FIG. 12.
35 mg of the compound represented by formula (II) was weighed and added into a 1.5 mL liquid vial, and 400 μL methanol was added thereto, and the obtained mixture was homogeneously mixed under ultrasound. […]

Row | Structure (SMILES) | stability in the methanol solution
1 | C=CC(=O)N[C@H]1COC[C@H]1Nc1ncc(/C=C(\F)c2c(Cl)c(OC)cc(OC)c2Cl)cn1.CS(=O)(=O)O [Crystal Form E] | substantially high stability
2 | C=CC(=O)N[C@H]1COC[C@H]1Nc1ncc(/C=C(\F)c2c(Cl)c(OC)cc(OC)c2Cl)cn1 [Crystal Form B] | substantially high stability
